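In this assay, cells in 96-well plates receive the compound at five concentrations for 48 hours. Endpoints are linearly interpolated between the surrounding concentrations. Abbreviation: GI50, concentration required for 50% inhibition of growth. TGI is the concentration that stops growth completely.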
Experiments:
Experiment in all cases: DTP human tumour cell line panel, 48 h
SF-295 CNS = test system: SF-295 CNS
NCI-H460 lung = test system: NCI-H460 lung
HL-60(TB) leukemia = test system: HL-60(TB) leukemia
HT29 colon = test system: HT29 colon
RPMI-8226 leukemia = test system: RPMI-8226 leukemia
ACHN renal = test system: ACHN renal
CCRF-CEM leukemia = test system: CCRF-CEM leukemia
HCT-116 colon = test system: HCT-116 colon
SF-539 CNS = test system: SF-539 CNS
RXF 393 renal = test system: RXF 393 renal

Structure (SMILES) | TGI (SF-295 CNS) [µM] | TGI (NCI-H460 lung) [µM] | TGI (HL-60(TB) leukemia) [µM] | TGI (HT29 colon) [µM] | TGI (RPMI-8226 leukemia) [µM] | TGI (ACHN renal) [µM] | TGI (CCRF-CEM leukemia) [µM] | GI50 (SF-295 CNS) [µM] | GI50 (NCI-H460 lung) [µM] | GI50 (HCT-116 colon) [µM] | TGI (HCT-116 colon) [µM] | GI50 (HT29 colon) [µM] | GI50 (RPMI-8226 leukemia) [µM] | GI50 (ACHN renal) [µM] | GI50 (SF-539 CNS) [µM] | TGI (SF-539 CNS) [µM] | TGI (RXF 393 renal) [µM] | GI50 (HL-60(TB) leukemia) [µM] | GI50 (CCRF-CEM leukemia) [µM] | GI50 (RXF 393 renal) [µM]
N#CC(c1ccc(Cl)cc1)c1cccc(C(C#N)c2ccc(Cl)cc2)n1 (stereo unspecified) | > 100 | > 100 | > 100 | > 100 | > 100 | > 100 | > 100 | – | – | – | – | – | – | – | – | – | – | – | – | –
Cn1c2ccccc2c2c(Nc3ccccc3)c3ccccc3nc21 | 23.8 | 41.1 | – | 60.7 | 30.5 | 65.5 | – | 5.62 | 17.5 | 13.2 | 36.1 | 5.66 | 3.34 | 23 | 12.1 | 28.6 | – | – | – | –
CN(C)CC[N+]1=Nc2cccc3cccc(c23)N1 | > 100 | > 64.8 | > 60.1 | > 100 | > 66.8 | > 100 | > 67.3 | – | – | – | > 72.7 | – | – | – | – | > 100 | – | – | – | –
CCN(CCO)CC1CCCC2CCCCC21 (stereo unspecified) | > 100 | > 100 | – | > 100 | > 100 | > 100 | – | – | – | – | > 100 | – | – | – | – | > 100 | > 100 | – | – | –
CC(=O)NNc1nc(C)c(C(=O)NNC(=O)C(=O)Nc2c(Cl)cc([N+](=O)[O-])cc2Cl)s1 | > 100 | > 100 | 84.7 | > 100 | > 100 | > 100 | 93.4 | – | – | – | > 100 | – | – | – | – | 66.8 | – | – | – | –
NC(Cc1c[nH]c2c(O)cccc12)C(=O)O (stereo unspecified) | > 100 | > 100 | > 100 | > 100 | > 100 | > 100 | > 100 | > 100 | > 100 | > 100 | > 100 | > 100 | > 100 | > 100 | > 100 | > 100 | – | > 100 | > 100 | –
O=C(N/C(=C\c1ccc(/C=C(\NC(=O)c2ccccc2)c2nc3cc([N+](=O)[O-])ccc3[nH]2)cc1)c1nc2cc([N+](=O)[O-])ccc2[nH]1)c1ccccc1 | > 100 | – | – | > 100 | > 100 | > 100 | > 100 | – | – | – | > 100 | – | – | – | – | > 100 | > 100 | – | – | –
Cc1nc2ccccc2c(=O)n1-c1ccccc1I | > 100 | > 100 | > 100 | > 100 | > 100 | > 100 | > 100 | – | – | – | > 100 | – | – | – | – | – | – | – | – | –
Clc1cc2nsnc2c(Cl)n1 | > 100 | > 100 | 36.2 | 49.3 | 62.5 | > 100 | 27.1 | – | – | – | – | – | – | – | – | 46.1 | – | – | – | –
CN/N=C(/Cc1occc(=O)c1O)C(=O)Nc1ccccc1C | > 100 | > 100 | > 100 | > 100 | > 100 | > 100 | > 100 | – | – | – | > 100 | – | – | – | – | > 100 | – | – | – | –
COc1cc(CNc2cnc3cc(N)cc(N)c3n2)cc(OC)c1 | 71.9 | > 100 | > 100 | – | 20 | – | 52.3 | 26.5 | 54.4 | 16.3 | 29.8 | – | 6 | – | 23.2 | 46.9 | – | 32.9 | 18.5 | –
CCCCCN(CCCCC)CCCNc1c2c(nc3ccc(Cl)cc13)CCCC2 | 3.05 | 6.9 | – | 7.01 | 4.54 | 11.6 | – | 1.18 | 2.28 | 0.88 | 2.9 | 0.501 | 1.98 | 3.48 | 3.6 | 13.2 | 7.95 | – | – | 2.82
CC1(C)CCc2c(c3c(c4c(=O)c(O)c(-c5ccc(O)cc5)oc24)OC(C)(C)CC3)O1 | > 100 | > 100 | – | > 100 | > 100 | > 100 | > 100 | 34.3 | 48.7 | 57.6 | > 100 | > 100 | > 100 | 48.9 | – | – | – | – | > 100 | –
CCCCCCCCCCCOc1ccc(C(=O)C(=O)c2ccc(OCCCCCCCCCCC)c(OCCCCCCCCCCC)c2)cc1OCCCCCCCCCCC | > 100 | > 100 | > 100 | > 100 | > 100 | > 100 | > 100 | – | – | – | > 100 | – | – | – | – | > 100 | – | – | – | –
C/C(CC(=O)CCC(=O)Nc1cccc(C(F)(F)F)c1)=N\NC(=O)NN | > 100 | > 100 | > 100 | > 100 | > 100 | > 100 | > 100 | – | – | – | > 100 | – | – | – | – | > 100 | – | – | – | –
COc1ccc2c(C3=C(c4cn(C)c5ccccc45)C(=O)NC3=O)cn(C)c2c1 | – | > 25 | – | > 14 | > 25 | > 25 | > 25 | 0.0649 | 0.0982 | 0.112 | > 25 | 0.098 | 0.11 | 0.254 | 0.0556 | 0.134 | – | 0.0998 | 0.0961 | –

From PubChem BioAssay (NCI)
